The results in this text go back to patent publication US9321781B2, “Topoisomerase inhibitors” (Rutgers, The State University of New Jersey, priority 2009, dated 2016).

Data set [1] concerns human lymphoblast RPMI 8402. Kind of data set: MTT cytotoxicity assay (Test B), RPMI 8402. To be noted: RPMI 8402 cells, continuous exposure four days, read-out: Cytotoxicity (IC50 values (μM) RPMI8402). Type of data set: cell-based. The protocol:
(§1) Test B. Cytotoxic assays (cancer cell lines and efflux transporter cell lines)
(§2) The cytotoxicity was determined using the MTT-microtiter plate tetrazolinium cytotoxicity assay (MTA). The human lymphoblast RPMI 8402 and its camptothecin-resistant variant cell line, CPT-K5 was provided by Dr. Toshiwo Andoh (Aichi Cancer Center Research Institute, Nagoya, Japan). The P388 mouse leukemia cell line and its CPT-resistant TOP1-deficient variant P388/CPT45 were obtained from Michael R. Mattern and Randal K. Johnson (GlaxoSmithKline, King of Prussia, Pa.). The KB3-1 cell line and its multidrug-resistant variant KBV-1 were obtained from K.V. Chin (The Cancer Institute of New Jersey, New Brunswick, N.J.). The KBH5.0 cell line as noted previously was derived from KB3-1 by stepwise selection against Hoechst 33342. The cytotoxicity assay was performed using 96-well microtiter plates. Cells were grown in suspension at 37° C. in 5% CO2 and maintained by regular passage in RPMI medium supplemented with 10% heat inactivated fetal bovine serum, L-glutamine (2 mM), penicillin (100 U/mL), and Streptomycin (0.1 mg/mL). For determination of IC50, cells were exposed continuously for four days to varying concentrations of drug, and MTT assays were performed at the end of the fourth day. […] All assays were performed at least twice in six replicate wells.

Data set [2] deals with CPT-K5 (camptothecin-resistant variant cell line of RPMI 8402). Description: MTT cytotoxicity assay (Test B), CPT-K5. Type of data set: cell-based, human. To be noted: CPT-K5 cells, continuous exposure four days. The protocol: as §1, §2
For data set [3], the system named is P388 mouse leukemia cell line. Kind of data set: MTT cytotoxicity assay (Test B), P388. Type of data set: cell-based. To be noted: 96 h, P388 cells, continuous exposure four days. On the procedure:
as §1, §2

Data set [4] has as its system P388/CPT45 (CPT-resistant TOP1-deficient variant of P388). Kind of data set: MTT cytotoxicity assay (Test B), P388/CPT45. To be noted: Mus musculus, P388CPT45, 96 h, P388/CPT45 cells, continuous exposure four days. Type of data set: cell-based. The protocol: as §1, §2
Data set [5] is described as follows: MTT cytotoxicity assay, KB3-1 parent cell line. In kind it is cell-based. To be noted: human, KB3-1 cells (parent cell line), KB3-1 parent cells, continuous exposure four days. On the procedure:
as §1, §2
(§3) The cytotoxicity of the representative compounds of the invention were also tested against cell line KB3-1 (parent cell line), KBV-1 (a variant that overexpresses efflux transporter MDR1) and KBH5.0 (a variant that overexpresses BCRP). Differences in the relative cytotoxicity between the parent and variant cell lines may be indicative of a compound that is a substrate for an efflux transporter. […] Accordingly, compounds of the invention may be useful to treat tumors that are resistant to other anticancer agents, including anticancer agents that are susceptible to efflux by BCRP (e.g. anthracyclines, mitoxantrone, topotecan, irinotecan, bisanthrone, doxorubicin, daunorubicin, and epirubin.

A further data set relates to MDR1. Description: MTT cytotoxicity assay, KBV-1 efflux transporter cell line. Type of data set: cell-based. To be noted: human, KBV-1 cells (KB3-1 variant that overexpresses MDR1), KBV-1 cells (MDR1 overexpressing), continuous exposure four days. On the procedure: as §1, §2, §3
The test system of a further data set is BCRP. Kind of data set: MTT cytotoxicity assay, KBH5.0 efflux transporter cell line. Type of data set: cell-based. To be noted: human, KBH5.0 cells (KB3-1 variant that overexpresses BCRP); KBH5.0 cells (BCRP overexpressing), continuous exposure four days, MTT. The protocol:
as §1, §2, §3

Data set [6] relates to KBH5.0 (a variant that overexpresses BCRP). The description is as above. Type of data set: cell-based. To be noted: inferred from relative cytotoxicity KB3-1 vs KBH5.0. On the procedure:
as §1, §2, §3

Read-outs that look alike come from different tables or passages of the source. Bounds are passed on as bounds.

Take `COc1cc2c(cc1OC(=O)CCC1CCCC1)c(=O)n(CCN(C)C)c1c3cc4c(cc3ncc21)OCO4` [Example 5, 5-(2-(dimethylamino)ethyl)-9-methoxy-2,3-methylenedioxy-6-oxo-5,6-dihydrodibenzo[c,h][1,6]naphthyridin-8-yl (3-cyclopentyl)propionate]: the 50% inhibitory concentration (IC50) in data set [1] (Homo sapiens, RPMI 8402, 96 h) was 0.003 µM; in data set [2] (Homo sapiens, CPT-K5, 96 h), 0.33 µM; in data set [3] it was 0.002 µM; in data set [4], 0.07 µM. The 50% inhibitory concentration (IC50) at 4 days came to 0.003 µM in data set [5], 0.058 µM in the data set on MDR1 and 0.013 µM in the data set on BCRP.
For the compound `COc1cc2c(cc1OC(=O)c1ccccc1C)c(=O)n(CCN(C)C)c1c3cc4c(cc3ncc21)OCO4` [Example 2, 5-(2-(dimethylamino)ethyl)-9-methoxy-2,3-methylenedioxy-6-oxo-5,6-dihydrodibenzo[c,h][1,6]naphthyridin-8-yl 2-methylbenzoate], the IC50 was 0.07 µM in data set [1] (Homo sapiens, RPMI 8402, 96 h); 0.05 µM in data set [1]; 2 µM in data set [2] (Homo sapiens, CPT-K5, 96 h); 0.03 µM in data set [3]; 0.4 µM in data set [4]. For the same compound, the concentration for half-maximal inhibition (IC50) at 4 days in data set [5] is 0.04 µM; with MDR1 it was 0.2 µM; with BCRP, 0.04 µM. In data set [6], the “substrate for efflux transporter BCRP” value was “not a substrate for BCRP”.
With `COc1cc2c(cc1OC(=O)c1ccccc1)c(=O)n(CCN(C)C)c1c3cc4c(cc3ncc21)OCO4` [Example 1, 5-(2-(dimethylamino)ethyl)-9-methoxy-2,3-methylenedioxy-6-oxo-5,6-dihydrodibenzo[c,h][1,6]naphthyridin-8-yl benzoate], the IC50 in data set [1] (Homo sapiens, RPMI 8402, 96 h) was 0.006 µM; in data set [1], 0.009 µM; in data set [2] it was 0.55 µM; in data set [2] (Homo sapiens, CPT-K5, 96 h), 0.5 µM; in data set [3], 0.002 µM; in data set [4] it was 0.12 µM. Besides, the results for the half-maximal inhibitory concentration (IC50) at 4 days (in data set [5]; in the data set on MDR1; in the data set on BCRP) were 0.002 µM, 0.06 µM and 0.025 µM, respectively.
As for `CCOC(=O)Oc1cc2c(=O)n(CCN(C)C)c3c4cc5c(cc4ncc3c2cc1OC)OCO5` [Example 6, 5-(2-(dimethylamino)ethyl)-9-methoxy-2,3-methylenedioxy-6-oxo-5,6-dihydrodibenzo[c,h][1,6]naphthyridin-8-yl ethyl carbonate], the concentration for half-maximal inhibition (IC50) in data set [1] (Homo sapiens, RPMI 8402, 96 h) came to 0.0006 µM; in data set [2] (Homo sapiens, CPT-K5, 96 h) it was 0.25 µM; in data set [3], 0.0002 µM; in data set [4], 0.06 µM. For the same compound, the figures for the IC50 at 4 days (in data set [5]; in the data set with MDR1; with BCRP) were 0.001 µM, 0.003 µM and 0.008 µM, respectively.
For the compound `COc1cc2c(cc1OC(=O)OC(C)(C)C)c(=O)n(CCN(C)C)c1c3cc4c(cc3ncc21)OCO4` [Example 7, tert-butyl 5-(2-(dimethylamino)ethyl)-9-methoxy-2,3-methylenedioxy-6-oxo-5,6-dihydrodibenzo[c,h][1,6]naphthyridin-8-yl carbonate], the IC50 in data set [1] (Homo sapiens, RPMI 8402, 96 h) was 0.0005 µM; in data set [2] (Homo sapiens, CPT-K5, 96 h), 0.31 µM; in data set [3] it was 0.001 µM; in data set [4] it was 0.08 µM. Moreover, the IC50 at 4 days amounted to 0.002 µM in data set [5], 0.004 µM in the data set with MDR1 and 0.009 µM in the data set on BCRP.
For `COc1cc2c(cc1OC(=O)N(C)C)c(=O)n(CCN(C)C)c1c3cc4c(cc3ncc21)OCO4` [Example 9, 5-(2-(dimethylamino)ethyl)-9-methoxy-2,3-methylenedioxy-6-oxo-5,6-dihydrodibenzo[c,h][1,6]naphthyridin-8-yl dimethylcarbamate], the IC50 in data set [1] (Homo sapiens, 96 h) is 1.7 µM; in data set [2] (Homo sapiens, 96 h), above 10 µM; in data set [3], 1.3 µM; in data set [4], 3.8 µM. In addition, the concentration for half-maximal inhibition (IC50) at 4 days turned out to be 0.4 µM in data set [5], 3 µM in the data set with MDR1 and 2 µM in the data set on BCRP.
As for `CCNC(=O)Oc1cc2c(=O)n(CCN(C)C)c3c4cc5c(cc4ncc3c2cc1OC)OCO5` [Example 8, 5-(2-(dimethylamino)ethyl)-9-methoxy-2,3-methylenedioxy-6-oxo-5,6-dihydrodibenzo[c,h][1,6]naphthyridin-8-yl ethylcarbamate], the IC50 amounted to 0.003 µM in data set [1] (Homo sapiens, 96 h); 0.5 µM in data set [2] (Homo sapiens, 96 h); 0.003 µM in data set [3]; 0.09 µM in data set [4]. The half-maximal inhibitory concentration (IC50) at 4 days in data set [5] is 0.004 µM; in the data set with MDR1, 0.04 µM; in the data set with BCRP, 0.015 µM.
Take `COc1cc2c(cc1OC(=O)C(C)(C)C)c(=O)n(CCN(C)C)c1c3cc4c(cc3ncc21)OCO4` [Example 4, 5-(2-(dimethylamino)ethyl)-9-methoxy-2,3-methylenedioxy-6-oxo-5,6-dihydrodibenzo[c,h][1,6]naphthyridin-8-yl pivalate]: the concentration for half-maximal inhibition (IC50) in data set [1] (Homo sapiens, RPMI 8402, 96 h) came out at 0.0007 µM; in data set [2] (Homo sapiens, CPT-K5, 96 h), 0.3 µM; in data set [3] it was 0.003 µM; in data set [4], 0.25 µM. Also, the IC50 at 4 days amounted to 0.002 µM in data set [5], 0.024 µM in the data set on MDR1 and 0.017 µM with BCRP.
With `COc1cc2c(cc1OC(=O)N1CCC(N3CCCCC3)CC1)c(=O)n(CCN(C)C)c1c3cc4c(cc3ncc21)OCO4` [Example 10, 5-(2-(dimethylamino)ethyl)-9-methoxy-2,3-methylenedioxy-6-oxo-5,6-dihydrodibenzo[c,h][1,6]naphthyridin-8-yl 1,4′-bipiperidine-1′-carboxylate], the IC50 in data set [1] (Homo sapiens, 96 h) was 0.55 µM; in data set [2] (Homo sapiens, 96 h), 1.5 µM; in data set [3], 0.5 µM; in data set [4] it was 0.5 µM. Further, the values for the IC50 at 4 days (in data set [5]; in the data set on MDR1; with BCRP) were 0.75 µM, 1.6 µM and 1.1 µM, respectively.
Regarding `COc1cc2c(cc1OC(C)=O)c(=O)n(CCN(C)C)c1c3cc4c(cc3ncc21)OCO4` [Example 3, 5-(2-(dimethylamino)ethyl)-9-methoxy-2,3-methylenedioxy-6-oxo-5,6-dihydrodibenzo[c,h][1,6]naphthyridin-8-yl acetate], the IC50 in data set [1] (Homo sapiens, RPMI 8402, 96 h) was found to be 0.009 µM; in data set [2] (Homo sapiens, CPT-K5, 96 h), 0.7 µM; in data set [3], 0.004 µM; in data set [4] it was 0.3 µM. Besides, the 50% inhibitory concentration (IC50) at 4 days worked out at 0.007 µM in data set [5], 0.06 µM in the data set on MDR1 and 0.025 µM in the data set with BCRP.
